Data from patent US6710047B2, “Phthalazines with angiogenesis inhibiting activity” (Novartis AG, priority 1997, dated 2004).
pIC50: −log10 of the molar value. Where a name gives a salt, the structure may show the parent alone. Read-outs that look alike come from different tables or passages of the source.

What was measured:
[1] = target: T1, Flt-1 VEGF-receptor tyrosine kinase (Homo sapiens, UniProt P17948); assay: Test for activity against Flt-1 VEGF-receptor tyrosine kinase
T1 sequence (P17948 827-1158 limits assumed): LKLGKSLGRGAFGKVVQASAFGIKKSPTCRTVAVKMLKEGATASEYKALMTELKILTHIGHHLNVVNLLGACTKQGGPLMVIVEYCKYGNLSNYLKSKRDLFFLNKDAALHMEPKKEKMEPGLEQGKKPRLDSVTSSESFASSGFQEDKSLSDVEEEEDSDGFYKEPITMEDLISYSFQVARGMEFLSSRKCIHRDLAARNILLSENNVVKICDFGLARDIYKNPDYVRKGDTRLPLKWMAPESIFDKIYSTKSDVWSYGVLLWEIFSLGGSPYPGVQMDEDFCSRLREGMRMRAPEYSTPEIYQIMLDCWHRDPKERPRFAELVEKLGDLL
Description: Test for activity against VEGF-receptor tyrosine kinase. The test is conducted using Flt-1 VEGF-receptor tyrosine kinase. […] The reaction is then ended by the addition of 10 μl 0.25 M ethylenediaminetetraacetate (EDTA) pH 7. Using a multichannel dispenser (LAB SYSTEMS, USA), an aliquot of 20 μl is applied to a PVDF (=polyvinyl difluoride) Immobilon P membrane (Millipore, USA), incorporating a Millipore microtiter filter manifold, and connected to a vacuum.
The test is conducted using Flt-1 VEGF-receptor tyrosine kinase, as described hereinabove.

PDGF-receptor kinase = assay: Inhibition of PDGF-receptor kinase (method of Trinks et al.); assay type: biochemical
Description: An inhibitory effect can also be found especially on PDGF-receptor kinase, which is determined according to the method described by Trinks et al. (see J. Med. Chem. 37(7): 1015-27 [1994]). Inhibitory activity is shown here in the micromolar range using a compound of formula I (or an N-oxide thereof); […]

Row | Compound | melting point [°C] | pIC50 [1] | pIC50 (PDGF-receptor kinase) | pIC50 ([1]; kinase domain of Flt-1, poly(Glu,Tyr) 4:1, 8 μM [33P]-ATP, 15 minutes at room temperature)
1 | Cc1ccc(Nc2nnc(Cc3ccncc3)c3ccccc23)cc1C [Example 45] | 180 to 181 | 6.46 | – | –
2 | CS(=O)(=O)O.CS(=O)(=O)O.CS(=O)(=O)O.Nc1cccc(Nc2nnc(Cc3ccncc3)c3ccccc23)c1 [Example 20, 1-(3-Aminoanilino)-4-(4-pyridylmethyl)phthalazine trimesylate] | 249 to 251 | 6.30 | – | –
3 | Brc1ccc(Nc2nnc(Cc3ccncc3)c3ccccc23)cc1 [Example 22, 1-(4-Bromoanilino)-4-(4-pyridylmethyl)phthalazine] | 201 to 202 | 6.74 | – | –
4 | Clc1ccc(Nc2nnc(Cc3ccncc3)c3ccccc23)cc1 [Example 1, 1-(4-Chloroanilino)-4-(4-pyridylmethyl)phthalazine dihydrochloride] | – | – | ~6.00 | –
5 | COc1ccccc1Nc1nnc(Cc2ccncc2)c2ccccc12 [Example 14, 1-(2-Methoxyanilino)-4-(4-pyridylmethyl)phthalazine] | 190 to 191 | 6.13 | – | –
6 | Fc1ccc(Nc2nnc(Cc3ccncc3)c3ccccc23)cc1Cl [Example 42, 1-(3-Chloro-4-fluoroanilino)-4-(4-pyridylmethyl)phthalazine] | 185 to 187 | 6.68 | – | –
7 | Cc1ccc(Nc2nnc(Cc3ccncc3)c3ccccc23)cc1 [Example 37, 1-(4-Methylanilino)-4-(4-pyridylmethyl)phthalazine] | 152 to 153 | 6.81 | – | –
8 | Cc1cccc(Nc2nnc(Cc3ccncc3)c3ccccc23)c1 [Example 43, 1-(3-Methylanilino)-4-(4-pyridylmethyl)phthalazine] | 141 to 143 | 5.04 | – | –
9 | Fc1ccc(Nc2nnc(Cc3ccncc3)c3ccccc23)cc1 [Example 17, 1-(4-Fluoroanilino)-4-(4-pyridylmethyl)phthalazine] | 129 to 131 | 6.54 | – | –
10 | c1ccc(CNc2nnc(Cc3ccncc3)c3ccccc23)cc1 [Example 7, 1-Benzylamino-4-(4-pyridylmethyl)phthalazine] | 137 to 138 | 6.19 | – | –
11 | COc1ccc(Nc2nnc(Cc3ccncc3)c3ccccc23)cc1 [Example 8, 1-(4-Methoxyanilino)-4-(4-pyridylmethyl)phthalazine] | 223 to 224 | 6.48 | – | –
12 | COc1ccc(Nc2nnc(Cc3ccncc3)c3ccccc23)cc1Cl [Example 23, 1-(3-Chloro-4-methoxyanilino)-4-(4-pydridylmethyl)phthalazine] | 195 to 197 | 6.29 | – | –
13 | FC(F)(F)c1ccc(Nc2nnc(Cc3ccncc3)c3ccccc23)cc1 [Example 16, 1-(4-Trifluoromethylanilino)-4-(4-pyridylmethyl)phthalazine] | 205 to 206 | 6.28 | – | –
14 | Clc1ccc(Nc2nnc(Cc3ccncc3)c3ccncc23)cc1 [Example 76, 4-(4-Chloroanilino)-1-(4-pyridylmethyl)pyrido[3,4-d]pyridazine] | 220 to 221 | 5.49 | – | –
15 | Clc1ccc(Nc2nnc(Cc3ccncc3)c3cnccc23)cc1 [Example 75, 1-(4-Chloroanilino)-4-(4-pyridylmethyl)pyrido[3,4-d]pyridazine] | 227 to 228 | 6.00 | – | –
16 | Clc1ccc(Nc2nnc(Cc3ccncn3)c3ccccc23)cc1 [Example 66, 1-(4-Chloroanilino)-4-(4-pyrimidinylmethyl)phthalazine] | 174 to 176 | 5.62 | – | –

Results, then the compound that gave them:

Row | melting point [°C] | pIC50 [1] | pIC50 (PDGF-receptor kinase) | pIC50 ([1]; kinase domain of Flt-1, poly(Glu,Tyr) 4:1, 8 μM [33P]-ATP, 15 minutes at room temperature) | Compound
17 | 204 to 206 | 5.92 | – | – | Clc1ccc(Sc2nnc(Cc3ccncc3)c3ccccc23)cc1 [Example 72E]
18 | 157 to 159 | 6.50 | – | – | Fc1cc(Cl)ccc1Nc1nnc(Cc2ccncc2)c2ccccc12 [Example 44D, 1-(4-Chloro-2-fluoroanilino)-4-(4-pyridylmethyl)phthalazine]
19 | 158 to 159 | – | – | 6.20 | Cc1cc(Cc2nnc(Nc3ccc(Cl)cc3)c3ccccc23)ccn1 [Example 44F, 1-(4-Chloroanilino)-4-[(2-methyl-4-pyridyl)methyl]phthalazine]
20 | 163 to 164 | 6.56 | – | – | CCc1ccc(Nc2nnc(Cc3ccncc3)c3ccccc23)cc1 [Example 44A, 1-(4-Ethylanilino)-4-(4-pyridylmethyl)phthalazine]
21 | 180 to 181 | 6.63 | – | – | CCCc1ccc(Nc2nnc(Cc3ccncc3)c3ccccc23)cc1 [Example 44B, 1-(4-Propylanilino)-4-(4-pyridylmethyl)phthalazine]
22 | 143 to 144 | 6.36 | – | – | CCc1cccc(Nc2nnc(Cc3ccncc3)c3ccccc23)c1 [Example 67E]
